Data reported in US20200001104A1, “SCALABLE MAGNETOMECHANICAL SCHEMES AND DEVICES FOR REMOTE CONTROL OF MECHANOSENSITIVE CELLS” (Massachusetts Institute of Technology, priority 2018, published 2020).
“Also recorded” adds a separate entry of the source. Like-named read-outs stand apart in the source and are kept apart here.

Tested on: dorsal root ganglion (DRG) explant cultures
Assay: Magnetomechanical stimulation in the presence of channel blockers, calcium imaging
Assay type: cell-based, rat
[1] = blocker at 100 μM, MNDs plus MF
[2] = cells incubated with blocker, all doses, one-way ANOVA, n=6

[Cl][Gd]([Cl])[Cl] [Gd^3+, Gadolinium(III) (Gd^3+) chloride]
Ca2+ response to magnetomechanical stimulation [1]: enhanced response; also recorded: increases Ca^2+ influx | Ca2+ response to magnetomechanical stimulation (blocker at 1000 μM (1 mM), MNDs plus MF): reduced response; also recorded: nearly eliminates Ca^2+ activity | fraction of cells responding to magnetomechanical stimulation (blocker at 1 mM, one-way ANOVA and Tukey's HSD, n=6): significantly lower fraction

CCCCCC/C=C\CCCCCCCC(=O)O [PA, palmitoleic acid]
Ca2+ response to magnetomechanical stimulation (blocker at 30-300 μM, MNDs plus MF): failed to block; also recorded: do not affect | number of responders to magnetomechanical stimulation [2]: No significant difference

NC1=N[C@H](O)[C@H]2[C@H]3O[C@]4(O)O[C@@H]([C@@H](O)[C@@]2(N1)[C@@H]4O)[C@]3(O)CO [TTX, tetrodotoxin]
Ca2+ response to magnetomechanical stimulation: failed to block; also recorded: do not affect | number of responders to magnetomechanical stimulation: No significant difference

ruthenium red [RuR]
Ca2+ response (ΔF/F0) to magnetomechanical stimulation (blocker at 10 μM, MNDs plus MF): larger ΔF/F0 changes; also recorded: increases | Ca2+ response to magnetomechanical stimulation [1]: returns to baseline levels | number of responders to magnetomechanical stimulation [2]: No significant difference
